Reference: US20100280986A1, “SYSTEMS AND METHODS FOR TAILORING ACUTE AND CHRONIC VIRAL INFECTION […] INCREASE THE P[…] "CURE" FOR A GIVEN SUBJECT” (Roche Palo Alto, priority 2009, published 2010)

Test system: HCV
Experiment: HCV viral kinetic population model (nonlinear mixed effects) fitted to long-term viral load profiles of 2100 CHC patients
Assay type: in vivo, human (patients)
Description: In an embodiment, a population model may account for the ribavirin effect, the natural turnover and proliferation of hepatocytes, and the viral eradication.
In this example, liver physiological/patho-physiology characteristics are incorporated into model 400, such as hepatocyte cell maturation (source s), death rate (death d), maximal liver size (Tmax). Model 400 can be parameterization in terms of a reproductive ratio (RR0) rather than cell infectivity (infection β). A “cure” boundary condition can be provided when a number of infected cells is predicted to be <=1.
HCV viral kinetic model 400 is extended with a density dependent proliferation of hepatocytes [r].
Infectious HCV virions (VI) infect target cells (uninfected hepatocytes) [T] creating productively infected cells (I) at a rate β·V1·T. Uninfected hepatocytes are produced at rate s and die at rate d. Infected hepatocytes die at rate δ. Infectious (VI) and non-infectious (VNI) virions are produced at rate p and cleared at rate c. The measured viral load (V) can be expressed in IU/mL, representing the sum of infectious and non-infectious virions V=VI+VN.
Continuing the example, DoseRBV is the daily dose of ribavirin per kg body weight and ED50RRV is the estimated daily dose in mg/kg rendering 40% of the virions non-infectious. […]

## NC(=O)c1ncn([C@@H]2O[C@H](CO)[C@@H](O)[C@H]2O)n1 [ribavirin]
Population estimate, daily dose per kg body weight
  ED50RBV (estimated daily dose rendering virions non-infectious): 14.4 mg˜kg^−1·day^−1
Standard ribavirin treatment of 1000/1200 mg per day
  Fraction of the virions rendered non-infectious: 40-60%
